Experimental data as given in ChEMBL document CHEMBL3885881, “DrugMatrix”.

Species: Rattus norvegicus
Experiment: DrugMatrix - Regimen: Daily Repeat
Format: toxicity, organism-based, Sprague-Dawley
Parameters: regimen Daily Repeat, gender Male, age 6-8 weeks
Conditions: in vivo, po, 35 mg/kg, route oral GAVAGE, dose level Low, vehicle .5 % CMC; for ABSOLUTE BASOPHIL / ABSOLUTE EOSINOPHIL / ABSOLUTE LYMPHOCYTE / ABSOLUTE MONOCYTE / ABSOLUTE SEGMENTED NEUTROPHIL / BASOPHIL / EOSINOPHIL / ERYTHROCYTE COUNT / HEMATOCRIT / HEMOGLOBIN / LEUKOCYTE COUNT / LYMPHOCYTE / MEAN CORPUSCULAR HEMOGLOBIN / MEAN CORPUSCULAR HEMOGLOBIN CONCENTRATION / MEAN CORPUSCULAR VOLUME / MONOCYTE / NEUTROPHIL / NUCLEATED RED BLOOD CELLS / PLATELET COUNT: tissue Blood; for ALANINE AMINOTRANSFERASE / ALBUMIN / ALKALINE PHOSPHATASE / ASPARTATE AMINOTRANSFERASE / BLOOD UREA NITROGEN / CARBON DIOXIDE / CHLORIDE / CHOLESTEROL / CREATINE PHOSPHOKINASE / CREATININE / GLUCOSE / LACTATE DEHYDROGENASE / LIPASE / PHOSPHORUS / POTASSIUM / SODIUM / TOTAL BILIRUBIN / TOTAL PROTEIN / URIC ACID: tissue Plasma

## COC(=O)C1=C(C)NC(C)=C(C(=O)OC)C1c1ccccc1[N+](=O)[O-] [NIFEDIPINE]
72 h, time 3 day
  ABSOLUTE BASOPHIL: 0 CELLS/uL
  ABSOLUTE EOSINOPHIL: 0 CELLS/uL
  ABSOLUTE LYMPHOCYTE: 17514.67 CELLS/uL
  ABSOLUTE MONOCYTE: 172 CELLS/uL
  ABSOLUTE SEGMENTED NEUTROPHIL: 1213.33 CELLS/uL
  BASOPHIL: 0%
  EOSINOPHIL: 0%
  ERYTHROCYTE COUNT: 5.2 x10E6/uL
  HEMATOCRIT: 33.43%
  HEMOGLOBIN: 12.8 G/DL
  LEUKOCYTE COUNT: 18.9 x10E3/uL
  LYMPHOCYTE: 92.67%
  MEAN CORPUSCULAR HEMOGLOBIN: 24.63 pg
  MEAN CORPUSCULAR HEMOGLOBIN CONCENTRATION: 38.27 G/DL
  MEAN CORPUSCULAR VOLUME: 64.3 fL
  MONOCYTE: 1%
  NEUTROPHIL: 6.33%
  NUCLEATED RED BLOOD CELLS: 0.33 /100WBC
  PLATELET COUNT: 1358.33 x10E3/uL
  ALANINE AMINOTRANSFERASE: 46 u/L
  ALBUMIN: 4.37 G/DL
  ALKALINE PHOSPHATASE: 361.33 u/L
  ASPARTATE AMINOTRANSFERASE: 91.33 u/L
  BLOOD UREA NITROGEN: 21.67 mg/dL
  CARBON DIOXIDE: 24 mmol/L
  CHLORIDE: 106.33 MEQ/L
  CHOLESTEROL: 90.67 mg/dL
  CREATINE PHOSPHOKINASE: 276 u/L
  CREATININE: 0.31 mg/dL
  GLUCOSE: 142.67 mg/dL
  LACTATE DEHYDROGENASE: 570 u/L
  LIPASE: 11 u/L
  PHOSPHORUS: 11.77 mg/dL
  POTASSIUM: 6.88 MEQ/L
  SODIUM: 148.6 MEQ/L
  TOTAL BILIRUBIN: 0.2 mg/dL
  TOTAL PROTEIN: 6.2 G/DL
  URIC ACID: 1.67 mg/dL
120 h, time 5 day
  ABSOLUTE BASOPHIL: 0 CELLS/uL
  ABSOLUTE EOSINOPHIL: 0 CELLS/uL
  ABSOLUTE LYMPHOCYTE: 11212.33 CELLS/uL
  ABSOLUTE MONOCYTE: 196 CELLS/uL
  ABSOLUTE SEGMENTED NEUTROPHIL: 1358.33 CELLS/uL
  BASOPHIL: 0%
  EOSINOPHIL: 0%
  ERYTHROCYTE COUNT: 6.29 x10E6/uL
  HEMATOCRIT: 40.53%
  HEMOGLOBIN: 14.9 G/DL
  LEUKOCYTE COUNT: 12.77 x10E3/uL
  LYMPHOCYTE: 88.33%
  MEAN CORPUSCULAR HEMOGLOBIN: 23.67 pg
  MEAN CORPUSCULAR HEMOGLOBIN CONCENTRATION: 36.77 G/DL
  MEAN CORPUSCULAR VOLUME: 64.4 fL
  MONOCYTE: 1.33%
  NEUTROPHIL: 10.33%
  NUCLEATED RED BLOOD CELLS: 0 /100WBC
  PLATELET COUNT: 1155 x10E3/uL
  ALANINE AMINOTRANSFERASE: 57 u/L
  ALBUMIN: 4.5 G/DL
  ALKALINE PHOSPHATASE: 414.33 u/L
  ASPARTATE AMINOTRANSFERASE: 79.67 u/L
  BLOOD UREA NITROGEN: 19 mg/dL
  CARBON DIOXIDE: 23 mmol/L
  CHLORIDE: 104 MEQ/L
  CHOLESTEROL: 81.67 mg/dL
  CREATINE PHOSPHOKINASE: 210 u/L
  CREATININE: 0.21 mg/dL
  GLUCOSE: 163.67 mg/dL
  LACTATE DEHYDROGENASE: 114.33 u/L
  LIPASE: 10 u/L
  PHOSPHORUS: 13.37 mg/dL
  POTASSIUM: 7.57 MEQ/L
  SODIUM: 147 MEQ/L
  TOTAL BILIRUBIN: 0.27 mg/dL
  TOTAL PROTEIN: 6.5 G/DL
  URIC ACID: 2 mg/dL
